# Assay results reported in paper PMC7665192, “A natriuretic peptide from Arabidopsis thaliana (AtPNP-A) can modulate catalase 2 activity” (Scientific Reports, 2020).
# Positions of bridges follow the written chain, without caps; N, C: chain ends. No end group written: not given here.
# T1: bovine liver CAT (C-40; Sigma) (bovine, UniProt P00432 1-527)
# T1 construct: catalase from bovine liver; also called bovine CAT; bovine liver catalase; source: bought: Sigma (C-40), bovine liver
# T1 sequence (looked up): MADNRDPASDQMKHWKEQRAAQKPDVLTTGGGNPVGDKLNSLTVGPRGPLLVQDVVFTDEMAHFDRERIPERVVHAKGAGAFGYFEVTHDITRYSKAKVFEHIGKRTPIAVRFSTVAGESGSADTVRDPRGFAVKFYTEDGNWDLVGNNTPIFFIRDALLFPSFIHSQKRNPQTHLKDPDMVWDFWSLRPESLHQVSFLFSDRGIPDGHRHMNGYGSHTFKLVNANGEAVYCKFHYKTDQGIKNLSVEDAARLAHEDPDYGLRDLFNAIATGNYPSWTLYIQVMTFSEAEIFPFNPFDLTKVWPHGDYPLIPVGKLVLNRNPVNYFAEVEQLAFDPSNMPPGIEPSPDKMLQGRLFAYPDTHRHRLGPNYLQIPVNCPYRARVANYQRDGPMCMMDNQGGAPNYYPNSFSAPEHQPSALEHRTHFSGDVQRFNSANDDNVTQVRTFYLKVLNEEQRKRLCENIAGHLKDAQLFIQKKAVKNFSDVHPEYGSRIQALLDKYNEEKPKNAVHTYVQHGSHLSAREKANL
# T2: recombinant catalase 2 (rCAT2), N-terminally 6xHis-tagged (A. thaliana, UniProt P25819 1-492)
# T2 construct: catalase 2 (CAT2), A. thaliana; held on the NTA chip by its His tag; also called CAT2 recombinant protein; His-tagged rCAT2; source: E. coli BL21 (DE3) One Shot, purified (Ni-NTA beads, HisTrap HP column); not shown: 6xHis, N-terminal, kept
# T2 sequence (looked up): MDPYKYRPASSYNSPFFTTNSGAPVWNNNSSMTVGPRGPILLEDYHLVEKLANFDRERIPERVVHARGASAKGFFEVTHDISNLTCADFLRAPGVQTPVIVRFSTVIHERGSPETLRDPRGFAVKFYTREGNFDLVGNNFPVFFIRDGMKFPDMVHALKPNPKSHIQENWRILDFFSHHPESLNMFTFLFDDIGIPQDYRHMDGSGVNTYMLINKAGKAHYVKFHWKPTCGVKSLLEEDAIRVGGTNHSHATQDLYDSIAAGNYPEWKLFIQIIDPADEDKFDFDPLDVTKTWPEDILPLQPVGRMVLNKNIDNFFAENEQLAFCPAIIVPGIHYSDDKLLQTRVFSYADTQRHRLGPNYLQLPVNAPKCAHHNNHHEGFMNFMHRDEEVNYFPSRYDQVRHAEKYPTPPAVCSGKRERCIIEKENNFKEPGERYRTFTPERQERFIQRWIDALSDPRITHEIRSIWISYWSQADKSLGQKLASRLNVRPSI
# B1: pAtPNP-A, synthetic peptide with the active region of AtPNP-A, as used in SPR, ITC and the catalase activity assay (peptide, UniProt Q9ZV52 33-66, looked up)
# peptide: YDPPYTRSACYGTQRETLVVGVKNNLWQNGRACG
# modifications: disulfide 10-33 (inferred); not fully specified
# notes: AtPNP-A (plant natriuretic peptide A), A. thaliana, active region, amino acids 33-66; peptides were made with or without a C-terminal biotin tag; also called biologically active fragment of AtPNP-A; source: synthetic peptide (GenScript, purity > 95%)
# Assays:
# [1] = tested on: guard cell; conditions: cited from earlier work
# Text: A PNP_CAT interaction in plant responses to infecting pathogens is not surprising. CATs commonly function to down-regulate ROS during ABA-induced stomatal closure, and ABA-induced stomatal closure can be inhibited by removal of H2O2 via CAT2[73],[74]. […] Therefore, it is tempting to speculate that AtPNP-A modulates the effect of ABA on stomatal aperture through the interaction w ...
# [2] = tested on: cGMP; conditions: cited from earlier work
# Text: Similarly, identification of novel receptors targeted by an increasing number of peptidic plant hormones discovered in the last few decades[8],[9] is anticipated. One of those, the plant natriuretic peptides (PNPs), are a group of systemically mobile signals[10] that have a role in the maintenance of salt and water balance[11],[12]. An A. thaliana PNP, termed AtPNP-A (At2g18660; Q9ZV52), has been implicated in several physiological processes ranging from the regulation of stomatal aperture, osmoticum-dependent volume changes[13],[14] and modulation of developmental stage- and tissue-specif ... || A PNP_CAT interaction in plant responses to infecting pathogens is not surprising. CATs commonly function to down-regulate ROS during ABA-induced stomatal closure, and ABA-induced stomatal closure can be inhibited by removal of H2O2 via CAT2[73],[74]. […] Therefore, it is tempting to speculate that AtPNP-A modulates the effect of ABA on stomatal aperture through the interaction w ...
# [3] = tested on: plant pathogen; conditions: exogenous H2O2; cited from earlier work
# [4] = tested on: CAT2 transcript; conditions: exogenous application; cited from earlier work
# Text: (§1) It is also conceivable that modulation of CAT2 activity by AtPNP-A may not only have implications for plant biotic stress tolerance but may also result in changes in responses to abiotic stress. Activity of CAT2 is required for decomposition of photorespiration-derived H2O2 preventing redox perturbation under ambient growth conditions[59] while CAT2 deficiency causes a defective photorespiration phenotype including suppressed growth[58],[59] and accumulation of H2O2 in leaves. During senescence suppression of CAT2 function, mediated by G-BOX BINDING FACTOR1 (GBF1)[76], decreases CAT2 activ ...
# [5] = tested on: AtPNP-A-deficient seedlings; conditions: cited from earlier work
# Text: as §1
# [6] = molecular target: T1, bovine liver CAT (C-40; Sigma); assay: SPR; Biacore T100, 20 °C, flow 100 μL/min; bovine liver CAT amine-coupled to Series S CM5 chip, pAtPNP-A at 3.78 μM and consecutive twofold dilutions (11 injections); regeneration with glycine pH 2.0; kinetic analysis; conditions: both partners purified
# [7] = molecular target: T2, recombinant catalase 2 (rCAT2), …; assay: SPR; Biacore T100, 20 °C; His-tagged rCAT2 immobilised on the NTA sensor chip (app. 4,500 RU), peptides injected at the same concentration; unmodified reference surface; conditions: both partners purified
molecule,measurement,setting,value
"CC1=CC(=O)CC(C)(C)[C@@]1(O)/C=C/C(C)=C\C(=O)O [ABA, abscisic acid, reference compound]",Effect of ABA on AtPNP-A-dependent guard cell volume increases,[1],no effect
same,Effect of ABA on AtPNP-A-dependent cGMP increases,[2],no effect
"OO [H2O2, hydrogen peroxide]",Plant pathogen resistance,[3],enhances plant pathogen resistance
same,CAT2 transcript,[4],Increases in CAT2 transcript
C[n+]1ccc(-c2cc[n+](C)cc2)cc1 [methyl viologen],Chlorosis in AtPNP-A-deficient seedlings,[5],extensive chlorosis
same,CAT2 transcript,[4],Increases in CAT2 transcript
B1,Kd,[6],86 nM
same,binding result,[7],binds
